Measured values from PMC8780658 (Pharmaceutics, 2021).
Where a SMILES comes first, the peptide text is derived from it. The star is where a group is joined. Doxorubicin(3'-N) = COc1cccc2c1C(=O)c1c(O)c3c(c(O)c1C2=O)C[C@@](O)(C(=O)CO)C[C@@H]3O[C@H]1C[C@H](N*)[C@H](O)[C@H](C)O1; Propanoyl(3-maleimido) = O=C1C=CC(=O)N1CCC(=O)*; PEG2 = NCCOCCOCCC(=O)O

Legend:
MDA-MB231 tumor [1] = assay: Biodistribution in breast tumor models (NIRF imaging)
Experimental: The biodistribution of Al-ProD was assessed in breast tumor models, which were prepared by subcutaneous inoculation of 1 × 10^7 MBA-MB231 cells into the left flank of BALB/c nude mice. […] Then, noninvasive near-infrared fluorescence (NIRF) imaging was performed using an IVIS Lumina Series III system after 0 h, 3 h, 6 h, 12 h, 24 h, 48 h, and 72 h of injection. Fluorescence intensities in tumor regions were quantified via Living Image software. Mice were sacrificed after 12 h of injection for ex vivo imaging, followed by the collection of lung, liver, kidney, spleen, heart, and tumor tissues. Tumor tissues were also cut into 10 µm thick sections for histological assays. Slide-mounted tumor sections were analyzed by Leica TCS SP8 confocal laser-scanning microscope.

[2] = target: T1, bovine serum albumin (BSA) (Bos taurus, UniProt P02769); assay: Albumin binding of Al-ProD, SDS-PAGE band shift; settings: 100 µM compound, 700 µM albumin in PBS pH 7.4, room temperature, 1 h; native 12% SDS-PAGE, trans-UV; unbound band below 7 kDa
T1 construct: purchased Sigma Aldrich
T1 sequence (P02769 25-607): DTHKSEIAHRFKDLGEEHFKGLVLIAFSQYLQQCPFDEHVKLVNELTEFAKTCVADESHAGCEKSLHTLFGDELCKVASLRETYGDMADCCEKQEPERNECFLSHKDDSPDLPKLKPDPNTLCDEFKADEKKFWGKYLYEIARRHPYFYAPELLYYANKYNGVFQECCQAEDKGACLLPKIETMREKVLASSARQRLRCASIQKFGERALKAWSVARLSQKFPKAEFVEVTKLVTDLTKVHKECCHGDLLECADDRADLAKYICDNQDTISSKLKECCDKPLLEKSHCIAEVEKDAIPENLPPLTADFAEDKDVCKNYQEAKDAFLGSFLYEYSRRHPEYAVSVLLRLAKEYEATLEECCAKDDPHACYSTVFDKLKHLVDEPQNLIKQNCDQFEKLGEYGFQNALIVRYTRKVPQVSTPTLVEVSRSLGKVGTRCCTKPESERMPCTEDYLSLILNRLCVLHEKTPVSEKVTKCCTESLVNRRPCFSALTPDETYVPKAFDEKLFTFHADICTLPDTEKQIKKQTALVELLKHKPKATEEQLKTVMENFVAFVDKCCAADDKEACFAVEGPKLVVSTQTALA
Experimental: (§1) The albumin-binding property of Al-ProD was firstly evaluated. Briefly, to a human serum albumin (HSA), mouse serum albumin (MSA), or bovine serum albumin (BSA; 700 µM in PBS; pH 7.4), Al-ProD (100 µM) was added and incubated for 0, 5, and 60 min at room temperature. As a control, the HSA solution was pre-incubated with γ-maleimidobutyric acid for 1 h before adding Al-ProD. After incubation, samples were analyzed via native 12% SDS-PAGE gel. The gels were observed by trans-UV using the iBright^TM Imaging System (Invitrogen by Thermo Fisher Scientiric), and then stained with coomassie blue for visualizing proteins. The albumin-binding property of Al-ProD was further analyzed using reverse-phased high performance liquid chromatography (RP-HPLC; […]; Agilent Technologies) with ACN/H2O gradient from 80:20 to 20:80 for 30 min under a fluorescence detector (Ex/Em: 530/590 nm). […] Next, cathepsin B-specific cleavage of Al-ProD that was pre-incubated with HSA for 5 min (HSA-bound Al-ProD; 10 µM) was assessed by incubating with cathepsin B, cathepsin E, cathepsin D, cathepsin L, caspase-9, or caspase-3 (50 µg) at 37 °C for 24 h, followed by an analysis using HPLC with ACN/H2O gradient from 20:80 to 80:20 for 30 min.

[3] = target: T2, mouse serum albumin (MSA) (Mus musculus, UniProt P07724); assay: Albumin binding of Al-ProD, SDS-PAGE band shift; settings: 100 µM compound, 700 µM albumin in PBS pH 7.4, room temperature, 1 h; native 12% SDS-PAGE, trans-UV; unbound band below 7 kDa
T2 construct: purchased Sigma Aldrich
T2 sequence (P07724 25-608): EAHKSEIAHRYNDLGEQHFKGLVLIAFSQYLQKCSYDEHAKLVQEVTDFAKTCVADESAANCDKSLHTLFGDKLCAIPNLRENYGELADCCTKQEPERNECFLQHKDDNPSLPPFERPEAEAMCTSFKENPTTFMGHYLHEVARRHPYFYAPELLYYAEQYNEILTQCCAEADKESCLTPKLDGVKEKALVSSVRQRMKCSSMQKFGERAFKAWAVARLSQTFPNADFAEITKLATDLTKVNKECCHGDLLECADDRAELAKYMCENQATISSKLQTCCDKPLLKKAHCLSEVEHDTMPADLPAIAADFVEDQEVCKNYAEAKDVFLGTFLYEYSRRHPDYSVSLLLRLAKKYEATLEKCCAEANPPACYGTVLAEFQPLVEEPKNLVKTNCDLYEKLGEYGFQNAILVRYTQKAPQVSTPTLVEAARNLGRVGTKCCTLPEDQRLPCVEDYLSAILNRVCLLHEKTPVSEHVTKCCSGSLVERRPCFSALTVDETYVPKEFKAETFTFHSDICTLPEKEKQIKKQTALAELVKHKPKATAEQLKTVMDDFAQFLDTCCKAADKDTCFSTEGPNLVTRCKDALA
Experimental: as §1

H9C2 cells = assay: Cellular uptake, confocal fluorescence imaging; assay type: cell-based, rat; settings: 2 µM, 48 h, 37 °C, CLSM
Experimental: (§2) To assess intracellular behavior of Al-ProD via fluorescence imaging, 3 × 10^5 MDA-MB231 and H9C2 cells were seeded in confocal dishes. […] As a control, MDA-MB231 cells were pre-incubated for 2 h with cathepsin B-inhibitory siRNA that was pre-incubated with Lipofectamine 2000 for 40 min at room temperature. Then, cells were washed twice with DPBS, fixed with 5% paraformaldehyde for 15 min, and stained with 4′,6-diamidino-2-phenylindole (DAPI) for 10 min. Fluorescence imaging was performed using a Leica TCS SP8 confocal laser-scanning microscope (Leica Microsystems GmbH; Wetzlar, Germany). The DOX fluorescence in images was quantitatively analyzed using an Image Pro software (Media Cybernetic, Rockville, MD, USA).

[4] = In vivo toxicity evaluation in MDA-MB231 tumor-bearing mice
Experimental: (§3) Antitumor efficacy was assessed by measuring tumor volumes once every two days, calculated as largest diameter × smallest diameter^2 × 0.53, once every 2 days. The body weights of mice were also measured once every two days to assess in vivo toxicity. The in vivo toxicity of Al-ProD was further assessed by histological analyses. At 20 days after treatment, major organs were collected from mice and samples were stained with H&E following the manufacturer’s protocol. Then, organ sections were observed using an optical microscope.

MDA-MB231 tumor [5] = assay: Antitumor efficacy in MDA-MB231 tumor-bearing mice; assay type: in vivo, BALB/c nude mice; settings: 3 mg/kg based on DOX contents, once every three days; saline group 1810.98 ± 544.56 mm^3
Experimental: as §3

[6] = Pharmacokinetics after intravenous injection; assay type: in vivo; settings: BALB/c nude mice, i.v.
Experimental: Mice were bred under pathogen-free conditions at the Korea Institute of Science and Technology (KIST). All experiments with live animals were performed in compliance with the relevant laws and institutional guidelines of Institutional Animal Care and Use Committee (IACUC) in Korea Institute of Science and Technology (KIST), and IACUC approved the experiment (approved number of 2020-123). […] Then, each drug in the blood samples was extracted with DMSO by intense vortex and the samples were centrifuged at 2000 rpm for 40 min to obtain as a blood plasma. Finally, amount of free DOX and Al-ProD in samples was analyzed by IVIS Lumina Series III system (PerkinElmer; Waltham, MA, USA).

MDA-MB231 cells = assay: Cellular uptake, confocal fluorescence imaging; assay type: cell-based, human; settings: 2 µM, 48 h, 37 °C, CLSM
Experimental: as §2

[7] = 3 mg/kg based on DOX contents, once every three days
[8] = 12 h after i.v. injection, 3 mg/kg based on DOX contents

SMILES | Course of DOX fluorescence in tumor tissues (MDA-MB231 tumor [1]; mouse, in vivo, iv, 3 mg/kg) | DOX fluorescence in whole tumor tissue sections (histology) (MDA-MB231 tumor [1]; mouse, in vivo, iv, 3 mg/kg) | Band in SDS-PAGE gel after incubation with BSA (albumin binding) [2] | Band in SDS-PAGE gel after incubation with MSA (albumin binding) [3] | Intracellular location of DOX fluorescence in H9C2 cells (H9C2 cells) | Mice survival during treatment [4, 7] | Median survival ([4]; 3 mg/kg once every three days, saline group 20 days) | Normal organs stained with H&E ([4]; mouse, in vivo) | Tumor volume on day 20 after treatment (MDA-MB231 tumor [5]) | In vivo half-life, T1/2 ([6]; 3 mg/kg based on DOX contents, plasma fluorescence by IVIS) | In vivo half-life ([6]; 3 mg/kg, plasma fluorescence by IVIS) | Intracellular location of DOX fluorescence in MDA-MB231 cells (MDA-MB231 cells) | DOX fluorescence from tumor tissues relative to free DOX, NIRF imaging (MDA-MB231 tumor [1]; [8]) | DOX fluorescence in tumor tissues relative to free DOX group, ex vivo imaging (MDA-MB231 tumor [1]; [8]) | DOX fluorescence in whole tumor tissue sections (histology) (MDA-MB231 tumor [1]; 12 h after i.v. injection, 3 mg/kg based on DOX contents, confocal microscopy) | Time for which DOX fluorescence was retained in tumor tissues (MDA-MB231 tumor [1]; NIRF imaging, i.v., 3 mg/kg based on DOX contents) | Body weights during treatment [4, 7] | Normal organs stained with H&E ([4]; day 20 after treatment) | AUC increase compared with free DOX ([6]; 3 mg/kg based on DOX contents) | Time for which a detectable amount remained in the body ([6]; 3 mg/kg based on DOX contents)
COc1cccc2c1C(=O)c1c(O)c3c(c(O)c1C2=O)C[C@@](O)(C(=O)CO)C[C@@H]3O[C@H]1C[C@H](N)[C@H](O)[C@H](C)O1 [free DOX, doxorubicin] | rapidly decreased for 6 h | only a small quantity | not bound | not bound | clearly observed at the nuclei | ≤ 18 days | 16 days | structural abnormalities | 580.25 ± 139.92 mm^3 | 15 min | 15 min | clearly observed at the nuclei | – | – | – | – | – | – | – | –
COc1cccc2c1C(=O)c1c(O)c3c(c(O)c1C2=O)C[C@@](O)(C(=O)CO)C[C@@H]3O[C@H]1C[C@H](NC(=O)CNC(=O)[C@H](CCCNC(=N)N)NC(=O)[C@H](CCCNC(=N)N)NC(=O)[C@H](Cc2ccccc2)NC(=O)CCOCCOCCNC(=O)CCN2C(=O)C=CC2=O)[C@H](O)[C@H](C)O1 [Al-ProD, maleimide-PEG2-FRRG-DOX] ({Propanoyl(3-maleimido)-PEG2}-FRRG-{Doxorubicin(3'-N)}) | – | – | – | – | – | over 25 days | – | – | – | – | – | – | 3.33–4.08 fold | 3.41–4.92 fold | strong DOX fluorescence | 72 h | no significant body weight loss | negligible toxicity | approximately sevenfold | 144 h
